In paper PMC12362796, “Bilirubin Targeting WNK1 to Alleviate NLRP3‐Mediated Neuroinflammation” (Advanced Science, 2025):

Columns and labels:
WNK1 = molecular target: T1, WNK1 (Homo sapiens, UniProt Q9H4A3); experiment: CETSA-Western blotting in SH-SY5Y cells; assay type: cell-based; settings: 6 µM in serum-free medium vs DMSO, denaturation at different temperatures, soluble fraction
T1 construct: endogenous in cells; host or cells: SH-SY5Y
Description: To validate these findings, SH‐SY5Y cells were incubated in a serum‐free medium with bilirubin (6 µM) or an equivalent amount of DMSO as the control, followed by protein denaturation at different temperatures (Figure 1A).
Cells or tissues were lysed by grinding in RIPA buffer (cat. no. PC101; Epizyme Biotech) supplemented with a protease inhibitor cocktail (cat. no. 5872S; Cell Signaling Technology) at 4 °C. The lysate was subsequently centrifuged at 16000 × g for 30 min at 4 °C and the resulting supernatant was collected. The total protein concentration was determined using the Pierce BCA Protein Assay Kit (cat. no. 23 225, Thermo Fisher Scientific). The samples were denatured in a Protein Sample Loading Buffer (cat. no. LT101; Epizyme Biotech) at 95 °C and subjected to SDS‐polyacrylamide gel electrophoresis. Following electrophoresis, the proteins were transferred onto a nitrocellulose membrane (cat. no. HATF00010; Millipore) using a transfer buffer composed of 25 mM Tris, 190 mM glycine, and 20% methanol. Membranes were blocked with blocking buffer for western blotting (cat. no. P0252; Beyotime Biotechnology) at room temperature for 15 min, followed by overnight incubation with the primary antibody at 4 °C. After primary antibody incubation, the membranes were washed and incubated with secondary antibody at room temperature for 1 h. […]

UnaG = molecular target: UnaG; parameters: method as in PMID 23768684; settings: modified FABP family member derived from eel; cited from earlier work
[1] = test system: LPS-induced NLRP3 inflammasome activation in hippocampus; experiment: LPS-induced inflammation model in mice, hippocampal NLRP3 inflammasome activation; assay type: in vivo, mouse
Text: Furthermore, a murine model of infection‐induced inflammation was established in neonatal wild‐type, Blvra^−/− , and Ugt1a1^+/− mice by intraperitoneal administration of lipopolysaccharide (LPS) (Figure 5A).^[ [41], [42] ^] We assessed the expression levels of NLRP3 in the hippocampal region and the aggregation of the adaptor protein ASC in hippocampal neurons to indicate the level of inflammasome activation.^[ [43], [44] ^] We observed elevated NLRP3 expression (Figure 5B) and increased ASC aggregation in low‐bilirubin Blvra^−/− mice compared to wild‐type controls, whereas these parameters were reversed in high‐bilirubin Ugt1a1^+/− mice (Figure 5C,D). Additionally, Caspase‐1 enzyme activity decreased in high‐bilirubin mice (Figure 5E), supporting the inhibitory role of bilirubin in NLRP3 activation.
Figure 5 Bilirubin‐WNK1 suppresses LPS‐induced NLRP3 activation in the mouse hippocampus. A) Diagram of the experimental design. LPS (0.6 µg g^−1) or normal saline (NS) was injected intraperitoneally (i.p.) for 5 consecutive days starting on day 7. Hippocampal tissues were harvested 6 h after last injection. B) Western blotting analysis of NLRP3 in hippocampal tissues from WT, Blvra^−/− , or Ugt1a1^+/− mice after LPS/saline treatment. C) Immunofluorescence staining of ASC speck formation in hippocampal tissues from WT, Blvra^−/− , or Ugt1a1^+/− mice after LPS/saline treatment. β3‐Tubulin was used to label neurons and DAPI to stain cell nuclei. Main image scale bars = 50 µm, inset scale bars = 5 µm. D) Summary data showing the percentage of cells containing ASC specks as shown in C) (n = 6). (E) Relative activity of caspase‐1 in hippocampal tissues from WT, Blvra^−/− , or Ugt1a1^+/− mice after LPS/saline treatment (n = 3). F) Experimental design diagram. LPS (0.6 µg g^−1), LPS combined with bilirubin (5 µg g^−1), or normal saline (NS) was injected intraperitoneally for 5 consecutive days starting on day 7. G) Western blotting analysis of NLRP3 in hippocampal tissues from Wnk1^fl/fl,Thy1‐Cre mice after treatment. H) Immunofluorescence staining of ASC speck formation in hippocampal tissues from vehicle‐treated and Wnk1^fl/fl,Thy1‐Cre mice after treatment. β3‐Tubulin was used to label neurons and DAPI to stain cell nuclei. Main image scale bars = 50 µm, inset scale bars = 5 µm. Corresponding images are also provided in Figure S21 (Supporting Information). I) Relative activity of caspase‐1 in hippocampal tissues from Wnk1^fl/fl and Wnk1^fl/fl,Thy1‐Cre mice after treatment (n = 3). Error bars indicate mean ± SD. *p < 0.05, **p < 0.01, ***p < 0.001, and ****p < 0.0001.
To investigate the role of WNK1 in mediating the inhibitory effect of bilirubin on NLRP3 activation, we used Wnk1^fl/fl,Thy1‐Cre mice which is the hippocampal neuron‐specific Wnk1 knockout mice. Mice were then administered intraperitoneal injections of saline, LPS, or a combination of LPS and bilirubin (Figure 5F). After five days of LPS treatment, we observed increased staining areas for GFAP (an astrocyte marker) and IBA1 (a microglia marker). Furthermore, a portion of the adaptor protein ASC (encoded by PYCARD) co‐localized with IBA1 and GFAP.
Caspase‐1 activity was measured using a Caspase‐1 Activity Assay Kit (Beyotime Biotechnology, Haimen, China). Briefly, 50 µg of protein from the mouse hippocampal tissue was added to a reaction buffer containing Ac‐YVAD‐ρNA. The absorbance was read at 405 nm using a microplate reader, and caspase‐1 activity was normalized to that of the control.

[2] = LPS 0.6 µg g−1 with bilirubin 5 µg g−1 i.p., 5 consecutive days, hippocampus

T1 sequence (Q9H4A3 whole entry): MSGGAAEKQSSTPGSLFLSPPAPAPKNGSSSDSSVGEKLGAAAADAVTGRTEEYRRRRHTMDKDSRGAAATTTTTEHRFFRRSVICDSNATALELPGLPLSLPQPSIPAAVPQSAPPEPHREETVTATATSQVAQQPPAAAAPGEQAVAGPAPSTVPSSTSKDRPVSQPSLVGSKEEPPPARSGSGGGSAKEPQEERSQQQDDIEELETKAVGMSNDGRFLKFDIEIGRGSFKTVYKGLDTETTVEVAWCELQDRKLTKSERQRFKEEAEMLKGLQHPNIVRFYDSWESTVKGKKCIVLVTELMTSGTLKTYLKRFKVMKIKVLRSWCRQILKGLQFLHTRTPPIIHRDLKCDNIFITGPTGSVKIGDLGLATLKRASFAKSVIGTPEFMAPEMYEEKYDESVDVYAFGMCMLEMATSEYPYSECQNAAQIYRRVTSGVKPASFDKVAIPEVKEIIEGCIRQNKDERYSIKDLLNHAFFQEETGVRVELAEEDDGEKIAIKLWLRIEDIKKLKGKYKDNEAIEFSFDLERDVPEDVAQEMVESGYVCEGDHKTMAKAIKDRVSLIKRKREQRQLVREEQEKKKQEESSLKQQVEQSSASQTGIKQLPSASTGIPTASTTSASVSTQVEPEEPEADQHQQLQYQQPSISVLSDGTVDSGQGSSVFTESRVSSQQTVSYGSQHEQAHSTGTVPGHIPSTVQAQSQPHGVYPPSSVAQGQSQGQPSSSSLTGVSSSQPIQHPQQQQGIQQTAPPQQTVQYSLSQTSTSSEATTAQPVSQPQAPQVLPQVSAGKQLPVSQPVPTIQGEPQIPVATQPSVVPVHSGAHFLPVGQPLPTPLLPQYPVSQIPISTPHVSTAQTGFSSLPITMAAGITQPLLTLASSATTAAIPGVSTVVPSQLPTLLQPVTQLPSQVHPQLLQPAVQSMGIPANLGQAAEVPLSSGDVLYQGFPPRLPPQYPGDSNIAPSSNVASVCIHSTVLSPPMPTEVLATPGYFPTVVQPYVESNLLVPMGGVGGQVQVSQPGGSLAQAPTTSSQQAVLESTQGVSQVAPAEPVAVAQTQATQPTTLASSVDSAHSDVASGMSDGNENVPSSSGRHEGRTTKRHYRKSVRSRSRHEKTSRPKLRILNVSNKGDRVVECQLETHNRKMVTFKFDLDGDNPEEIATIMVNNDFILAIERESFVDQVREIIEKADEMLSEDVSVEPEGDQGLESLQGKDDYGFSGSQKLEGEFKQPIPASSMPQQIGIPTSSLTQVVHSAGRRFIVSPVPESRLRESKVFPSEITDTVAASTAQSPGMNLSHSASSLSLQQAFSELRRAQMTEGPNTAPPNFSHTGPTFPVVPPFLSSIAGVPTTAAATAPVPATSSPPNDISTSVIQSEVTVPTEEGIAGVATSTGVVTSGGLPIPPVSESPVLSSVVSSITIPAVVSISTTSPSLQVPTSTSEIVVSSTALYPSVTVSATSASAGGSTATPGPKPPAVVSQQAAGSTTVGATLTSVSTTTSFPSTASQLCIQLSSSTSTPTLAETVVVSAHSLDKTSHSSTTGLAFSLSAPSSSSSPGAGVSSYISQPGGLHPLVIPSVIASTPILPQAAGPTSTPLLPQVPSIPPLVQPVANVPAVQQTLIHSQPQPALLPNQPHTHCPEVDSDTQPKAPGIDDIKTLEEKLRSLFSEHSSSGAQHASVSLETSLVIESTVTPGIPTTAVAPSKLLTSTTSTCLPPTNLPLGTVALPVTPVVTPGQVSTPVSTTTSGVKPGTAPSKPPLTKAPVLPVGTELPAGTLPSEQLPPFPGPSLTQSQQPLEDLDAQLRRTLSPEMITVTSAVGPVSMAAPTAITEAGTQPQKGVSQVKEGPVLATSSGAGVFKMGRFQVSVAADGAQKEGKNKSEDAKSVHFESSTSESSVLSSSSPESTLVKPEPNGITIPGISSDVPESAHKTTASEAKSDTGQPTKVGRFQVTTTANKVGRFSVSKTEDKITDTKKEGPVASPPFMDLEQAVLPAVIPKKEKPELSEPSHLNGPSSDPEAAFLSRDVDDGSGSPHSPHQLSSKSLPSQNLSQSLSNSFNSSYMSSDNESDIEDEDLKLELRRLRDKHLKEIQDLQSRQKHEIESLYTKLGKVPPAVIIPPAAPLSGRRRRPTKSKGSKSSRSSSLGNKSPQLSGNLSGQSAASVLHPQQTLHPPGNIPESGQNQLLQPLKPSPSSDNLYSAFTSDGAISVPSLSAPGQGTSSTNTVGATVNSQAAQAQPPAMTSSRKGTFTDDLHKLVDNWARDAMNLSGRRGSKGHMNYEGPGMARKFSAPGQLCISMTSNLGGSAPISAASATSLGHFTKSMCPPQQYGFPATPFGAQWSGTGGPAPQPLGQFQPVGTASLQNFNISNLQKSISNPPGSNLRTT

In the case of C=CC1=C(C)/C(=C/c2[nH]c(Cc3[nH]c(/C=C4\NC(=O)C(C)=C4C=C)c(C)c3CCC(=O)O)c(CCC(=O)O)c2C)NC1=O [bilirubin, Bilirubin], the “thermal stability of WNK1” value (WNK1) is listed as “enhanced thermal stability”, the Kd (UnaG) is listed as 0.098 nM and the ASC speck formation ([1]; LPS 0.6 µg g−1 with bilirubin 5 µg g−1 i.p., 5 consecutive days, hippocampal neurons) is listed as “reduces”. For the same compound, the Caspase-1 activation [1, 2] was “reduces”, the IL-1β cleavage [1, 2] was “reduces” and the “ASC aggregation in microglia or astrocytes” value ([1]; LPS with bilirubin i.p., 5 days, IBA1 and GFAP co-localization) was “does not affect”. The “inhibitory effect on NLRP3 inflammasome assembly, Caspase-1 enzyme activity and IL-1β maturation after deletion of Wnk1” value ([1]; Wnk1fl/fl,Thy1-Cre mice, LPS stimulation) was “abolished” and the “phosphorylation-mediated activation of the NF-κB p65 subunit” value ([1]; upon LPS stimulation, hippocampus) was “neither bilirubin nor Wnk1 deficiency had a significant effect”.
